This note sets out measurements from patent publication US11066396B2 (priority 2016, dated 2021).

One assay has as its target HDAC1 (Homo sapiens (Human), UniProt Q13547). Particulars: read-out: HDAC1 IC50.
A further assay deals with HDAC8 (Homo sapiens (Human), UniProt Q9BY41). The conditions noted are these: read-out: HDAC8 IC50.
The target of the next assay is HDAC5 (Homo sapiens (Human), UniProt Q9UQL6). Particulars: read-out: HDAC5 IC50.
Chain of HDAC5 (Q9UQL6 656-1122): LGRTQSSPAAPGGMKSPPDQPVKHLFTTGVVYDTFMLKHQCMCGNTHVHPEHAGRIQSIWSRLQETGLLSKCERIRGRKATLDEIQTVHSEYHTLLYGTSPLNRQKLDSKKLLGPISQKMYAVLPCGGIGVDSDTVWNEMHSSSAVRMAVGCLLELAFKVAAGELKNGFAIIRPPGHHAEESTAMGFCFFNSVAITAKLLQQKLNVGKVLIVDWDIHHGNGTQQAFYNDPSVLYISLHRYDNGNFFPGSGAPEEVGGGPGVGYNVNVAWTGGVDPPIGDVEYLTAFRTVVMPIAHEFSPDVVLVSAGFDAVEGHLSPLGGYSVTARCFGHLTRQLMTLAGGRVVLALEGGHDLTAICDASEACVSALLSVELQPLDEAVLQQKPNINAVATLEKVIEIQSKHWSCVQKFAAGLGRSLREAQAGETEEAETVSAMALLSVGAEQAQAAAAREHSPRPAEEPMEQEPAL

Chain of HDAC1 (Q13547 whole entry): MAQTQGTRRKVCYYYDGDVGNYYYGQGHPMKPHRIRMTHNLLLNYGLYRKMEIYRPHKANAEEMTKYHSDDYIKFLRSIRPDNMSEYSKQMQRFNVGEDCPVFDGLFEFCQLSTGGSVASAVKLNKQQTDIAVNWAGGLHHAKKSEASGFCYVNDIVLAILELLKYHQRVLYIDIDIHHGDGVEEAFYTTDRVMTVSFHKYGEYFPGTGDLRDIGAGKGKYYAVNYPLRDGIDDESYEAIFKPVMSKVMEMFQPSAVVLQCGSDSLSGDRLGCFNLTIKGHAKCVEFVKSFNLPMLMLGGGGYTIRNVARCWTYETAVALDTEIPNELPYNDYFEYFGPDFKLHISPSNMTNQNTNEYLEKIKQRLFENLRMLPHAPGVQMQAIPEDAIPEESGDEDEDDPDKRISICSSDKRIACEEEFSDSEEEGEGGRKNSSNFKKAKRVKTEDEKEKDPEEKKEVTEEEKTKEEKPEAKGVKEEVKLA
Chain of HDAC8 (Q9BY41 whole entry): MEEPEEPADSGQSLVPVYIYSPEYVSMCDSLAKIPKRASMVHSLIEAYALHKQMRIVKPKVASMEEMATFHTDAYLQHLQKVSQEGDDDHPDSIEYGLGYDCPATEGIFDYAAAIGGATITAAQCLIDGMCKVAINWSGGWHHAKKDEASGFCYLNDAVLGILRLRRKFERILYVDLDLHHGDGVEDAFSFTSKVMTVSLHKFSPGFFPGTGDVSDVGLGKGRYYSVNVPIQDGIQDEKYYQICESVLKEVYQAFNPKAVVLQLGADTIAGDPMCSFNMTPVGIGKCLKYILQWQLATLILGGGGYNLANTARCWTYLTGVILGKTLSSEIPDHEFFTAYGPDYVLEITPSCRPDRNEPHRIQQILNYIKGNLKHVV

`COC(=O)N1CCC(C(=O)N(Cc2ccc(-c3noc(C(F)(F)F)n3)cn2)c2cccc(C(F)(F)F)c2)CC1` [Example 198, methyl 4-{({5-[5-(trifluoromethyl)-1,2,4-oxadiazol-3-yl]pyridin-2-yl}methyl)[3-(trifluoromethyl)phenyl]carbamoyl}piperidine-1-carboxylate]: the IC50 on HDAC1 amounted to 480 nM; at HDAC8, 1300 nM; on HDAC5 it was 650 nM.

For the compound `O=C(C1CCS(=O)(=O)CC1)N(Cc1ccc(-c2noc(C(F)(F)F)n2)cc1)c1cccc(C(F)(F)F)c1` [Example 30, N-(4-(5-(Trifluoromethyl)-1,2,4-oxadiazol-3-yl)benzyl)-N-(3-(trifluoromethyl)phenyl)tetrahydro-2H-thiopyran-4-carboxamide 1,1-dioxide], the IC50 on HDAC1 is 1340 nM; at HDAC8, 4300 nM; at HDAC5 it was 1200 nM.

With `O=C1NCCc2c(OCc3ccc(-c4noc(C(F)(F)F)n4)c(F)c3)cccc21` [Example 231, 5-({3-fluoro-4-[5-(trifluoromethyl)-1,2,4-oxadiazol-3-yl]phenyl}methoxy)-3,4-dihydroisoquinolin-1(2H)-one], the IC50 on HDAC1 came to 6900 nM; on HDAC8 it was 45000 nM; at HDAC5 it was 110 nM.

As to `Fc1cc(COc2cncnc2)ccc1-c1noc(C(F)(F)F)n1` [Example 236, 5-({3-fluoro-4-[5-(trifluoromethyl)-1,2,4-oxadiazol-3-yl]phenyl}methoxy)pyrimidine], the IC50 on HDAC1 turned out to be 3100 nM; at HDAC8, 2100 nM; on HDAC5, 42 nM.

In the case of `FC(F)(F)c1nc(-c2ccnc(OCc3nc4ccccc4[nH]3)c2)no1` [Example 200, 2-[({4-[5-(trifluoromethyl)-1,2,4-oxadiazol-3-yl]pyridin-2-yl}oxy)methyl]-1H-benzimidazole], the results for the IC50 on HDAC1, on HDAC8 and at HDAC5 were 450 nM, 970 nM and 460 nM, respectively.

As for `CN(C(=O)[C@@H]1COCC(=O)N1c1ccc(-c2noc(C(F)(F)F)n2)c(F)c1)C(C)(C)C` [Example 196, (3S)-N-tert-butyl-4-{3-fluoro-4-[5-(trifluoromethyl)-1,2,4-oxadiazol-3-yl]phenyl}-N-methyl-5-oxomorpholine-3-carboxamide], the figures for the concentration for half-maximal inhibition (IC50) on HDAC1, at HDAC8 and on HDAC5 were 6900 nM, 6300 nM and 300 nM, respectively.

For `O=C(C1CCS(=O)(=O)CC1)N(Cc1ccc(-c2noc(C(F)(F)F)n2)c(F)c1)c1cccc(C(F)(F)F)c1` [Example 489, N-({3-fluoro-4-[5-(trifluoromethyl)-1,2,4-oxadiazol-3-yl]phenyl}methyl)-1,1-dioxo-N-[3-(trifluoromethyl)phenyl]-llambda~6~-thiane-4-carboxamide], the IC50 at HDAC1 was determined as 950 nM; at HDAC8 it was 6900 nM; at HDAC5, 760 nM.

On to `O=C(N1CCOCC1)N(Cc1ccc(-c2noc(C(F)(F)F)n2)cn1)c1cccc(C(F)(F)F)c1` [Example 49, N-((5-(5-(trifluoromethyl)-1,2,4-oxadiazol-3-yl)pyridin-2-yl)methyl)-N-(3-(trifluoromethyl)phenyl)morpholine-4-carboxamide], for which the IC50 at HDAC1 came out at 1000 nM; on HDAC8, 10000 nM; at HDAC5, 1900 nM.

Take `COc1ncccc1OCc1ccc(-c2noc(C(F)(F)F)n2)c(F)c1` [Example 246, 3-({3-fluoro-4-[5-(trifluoromethyl)-1,2,4-oxadiazol-3-yl]phenyl}methoxy)-2-methoxypyridine]: the IC50 on HDAC1 was 2400 nM; on HDAC8 it was 45000 nM; on HDAC5, 120 nM.

As for `Cc1cc(OCc2ccc(-c3noc(C(F)(F)F)n3)c(F)c2)cc(C)n1` [Example 237, 4-({3-fluoro-4-[5-(trifluoromethyl)-1,2,4-oxadiazol-3-yl]phenyl}methoxy)-2,6-dimethylpyridine], the concentration for half-maximal inhibition (IC50) at HDAC1 stood at 1800 nM; at HDAC8, 5300 nM; at HDAC5 it was 230 nM.

Usually IC50 stands for the concentration that inhibits the measured activity by half.
